From patent US11427548B2 (Arvinas Operations, Inc., priority 2015, dated 2022)

Molecular target: T1, Androgen Receptor (Homo sapiens, UniProt P10275+P40337, T878A)
T1 construct: Compounds have been evaluated in this assay in LNCaP and/or VCaP cells utilizing similar protocols; endogenous in cells; host or cells: LNCaP cells
Assay: Androgen Receptor ELISA assay (PathScan AR ELISA) in LNCaP cells: AR degradation, Dmax and DC50
Format: cell-based
Settings: for DC50: concentration that caused 50% Androgen Receptor degradation

[1] = highest percentage of Androgen Receptor degradation observed
[2] = highest percentage of Androgen Receptor degradation

T1 sequence (P10275 whole entry T878A): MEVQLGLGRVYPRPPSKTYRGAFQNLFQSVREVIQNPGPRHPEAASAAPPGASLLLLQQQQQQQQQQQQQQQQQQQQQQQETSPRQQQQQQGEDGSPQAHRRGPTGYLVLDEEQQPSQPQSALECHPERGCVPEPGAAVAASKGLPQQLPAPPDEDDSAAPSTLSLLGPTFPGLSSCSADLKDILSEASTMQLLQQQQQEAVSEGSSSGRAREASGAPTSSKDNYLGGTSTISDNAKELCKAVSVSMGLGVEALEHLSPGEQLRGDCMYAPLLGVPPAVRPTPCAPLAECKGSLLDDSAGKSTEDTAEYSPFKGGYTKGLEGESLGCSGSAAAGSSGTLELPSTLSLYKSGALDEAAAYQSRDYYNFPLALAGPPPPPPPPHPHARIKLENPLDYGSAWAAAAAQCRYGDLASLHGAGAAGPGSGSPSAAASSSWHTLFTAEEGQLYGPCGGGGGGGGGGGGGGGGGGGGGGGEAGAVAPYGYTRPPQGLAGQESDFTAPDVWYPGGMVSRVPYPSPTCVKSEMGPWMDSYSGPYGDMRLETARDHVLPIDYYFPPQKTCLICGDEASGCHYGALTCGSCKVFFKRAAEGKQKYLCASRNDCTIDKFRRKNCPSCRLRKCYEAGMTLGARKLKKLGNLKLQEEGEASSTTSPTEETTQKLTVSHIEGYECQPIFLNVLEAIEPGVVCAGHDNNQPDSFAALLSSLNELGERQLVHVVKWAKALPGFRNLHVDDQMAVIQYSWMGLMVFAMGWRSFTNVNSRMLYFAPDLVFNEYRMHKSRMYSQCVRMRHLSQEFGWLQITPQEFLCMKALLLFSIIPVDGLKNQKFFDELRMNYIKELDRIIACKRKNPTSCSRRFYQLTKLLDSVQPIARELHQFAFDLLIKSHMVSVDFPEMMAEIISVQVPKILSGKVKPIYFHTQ
T1 sequence (P40337 whole entry): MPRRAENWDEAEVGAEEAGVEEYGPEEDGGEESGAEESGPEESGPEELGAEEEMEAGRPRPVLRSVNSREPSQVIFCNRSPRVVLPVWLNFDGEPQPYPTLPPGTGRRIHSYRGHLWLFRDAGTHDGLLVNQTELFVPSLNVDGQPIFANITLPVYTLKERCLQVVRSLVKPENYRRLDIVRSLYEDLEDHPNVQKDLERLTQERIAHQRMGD
T1 sequence (Q15369 whole entry partner): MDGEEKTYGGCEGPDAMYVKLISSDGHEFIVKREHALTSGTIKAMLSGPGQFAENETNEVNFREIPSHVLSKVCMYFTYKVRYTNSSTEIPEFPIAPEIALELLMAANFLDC
T1 sequence (Q15370 whole entry partner): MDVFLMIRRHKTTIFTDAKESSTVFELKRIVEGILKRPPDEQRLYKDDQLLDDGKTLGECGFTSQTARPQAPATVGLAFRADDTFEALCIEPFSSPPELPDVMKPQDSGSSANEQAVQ

| Structure (SMILES) | DC50 [nM] | Dmax [1] [%] | Dmax [2] [%] |
| --- | --- | --- | --- |
| Cc1ncsc1-c1ccc(CNC(=O)[C@@H]2C[C@@H](O)CN2C(=O)[C@@H](NC(=O)COCCCCOCCCCOc2ccc(N3C(=S)N(c4ccc(C#N)c(C(F)(F)F)c4)C(=O)C3(C)C)cc2)C(C)(C)C)cc1 [Example 24, (2S,4R)-1-[(2S)-2-(2-{4-[4-(4-{3-[4-cyano-3-(trifluoromethyl)phenyl]-5,5-dimethyl-4-oxo-2-sulfanylideneimidazolidin-1-yl}phenoxy)butoxy]butoxy}acetamido)-3,3-dimethylbutanoyl]-4-hydroxy-N-{[4-(4-methyl-1,3-thiazol-5-yl)phenyl]methyl}pyrrolidine-2-carboxamide] | < 50 | > 71 |  |
| Cc1ncsc1-c1ccc(CNC(=O)[C@@H]2C[C@@H](O)CN2C(=O)[C@H](C(C)C)N2Cc3ccccc3C2=O)c(OCCCOCCOc2ccc(N3C(=S)N(c4ccc(C#N)c(C(F)(F)F)c4)C(=O)C3(C)C)cc2)c1 [Example 241] | < 50 |  | 26 to 50 |
| Cc1ncsc1-c1ccc(CNC(=O)[C@@H]2C[C@@H](O)CN2C(=O)[C@@H](NC(=O)CCOCCCOc2ccc(N3C(=S)N(c4ccc(C#N)c(C(F)(F)F)c4)C(=O)C3(C)C)cc2)C(C)(C)C)cc1 [Example 244] | 51 to 500 |  | < 25 |
| Cc1ncsc1-c1ccc(CNC(=O)[C@@H]2C[C@@H](O)CN2C(=O)[C@H](C(C)C)N2Cc3ccccc3C2=O)c(OCCOc2ccc(N3C(=S)N(c4ccc(C#N)c(C(F)(F)F)c4)C(=O)C3(C)C)cc2)c1 [Example 261] | 51 to 500 |  | < 25 |
| Cc1ncsc1-c1ccc(CNC(=O)[C@@H]2C[C@@H](O)CN2C(=O)[C@@H](NC(=O)OCCOCCOc2ccc(-c3ccc(N4C(=S)N(c5ccc(C#N)c(C(F)(F)F)c5)C(=O)C4(C)C)cc3F)cc2)C(C)(C)C)cc1 [Example 76, 2-{2-[4-(4-{3-[4-cyano-3-(trifluoromethyl)phenyl]-5,5-dimethyl-4-oxo-2-sulfanylideneimidazolidin-1-yl}-2-fluorophenyl)phenoxy]ethoxy}ethyl N-[(2S)-1-[(2S,4R )-4-hydroxy-2-({[4-(4-methy1-1,3-thiazol-5-yl)phenyl]methyl}carbamoyl)pyrrolidin-l-yl]-3,3-dimethyl-1-oxobutan-2-yl]carhamate] | < 50 | 51 to 70 |  |
| Cc1ncsc1-c1ccc(CNC(=O)[C@@H]2C[C@@H](O)CN2C(=O)[C@H](C(C)C)N2Cc3ccccc3C2=O)c(OCCO[C@H](C)[C@@H](C)OCCOc2ccc(N3C(=S)N(c4ccc(C#N)c(C(F)(F)F)c4)C(=O)C3(C)C)cc2)c1 [Example 85, (2S,4R)-N-{[2-(2-{[(2R,3R)-3-[2-(4-{3-[4-cyano-3-(trifluoromethyl)phenyl]-5,5-dimethyl-4-oxo-2-sulfanylideneimidazolidin-1-yl}phenoxy)ethoxy]butan-2-yl]oxy}ethoxy)-4-(4-methyl-1,3-thiazol-5-yl)phenyl]methyl}-4-hydroxy-1-[(2S)-3-methyl-2-(1-oxo-2,3-dihydro-1H-isoindol-2-yl)butanoyl]pyrrolidine-2-carboxamide] | > 501 | 51 to 70 |  |
| Cc1ncsc1-c1ccc(CNC(=O)[C@@H]2C[C@@H](O)CN2C(=O)[C@@H](NC(=O)C(C)C)C(C)(C)C)c(OCCOCCOCCOc2ccc(N3C(=S)N(c4ccc(C#N)c(C(F)(F)F)c4)C(=O)C3(C)C)cc2)c1 [Example 269] | > 501 |  | 51 to 70 |
| CC(=O)N[C@@H](C)C(=O)N1C[C@H](O)C[C@H]1C(=O)NCc1ccc(-c2scnc2C)cc1OCCOCCOCCOc1ccc(N2C(=S)N(c3ccc(C#N)c(C(F)(F)F)c3)C(=O)C2(C)C)cc1 [Example 272] | > 501 |  | < 25 |
| Cc1ncsc1-c1ccc(CNC(=O)[C@@H]2C[C@@H](O)CN2C(=O)[C@@H](NC(=O)COCCOCCCCCOCCCCCOCCOCCOc2ccc(N3C(=S)N(c4ccc(C#N)c(C(F)(F)F)c4)C(=O)C3(C)C)cc2)C(C)(C)C)cc1 [Example 224] |  |  | 26 to 50 |
| Cc1ncsc1-c1ccc(CNC(=O)[C@@H]2C[C@@H](O)CN2C(=O)[C@H](C(C)C)N2Cc3ccccc3C2=O)c(OCCO[C@@H]2CCC[C@@H]2OCCOc2ccc(N3C(=S)N(c4ccc(C#N)c(C(F)(F)F)c4)C(=O)C3(C)C)cc2)c1 [Example 304] | 51 to 500 |  | 26 to 50 |
| Cc1ncsc1-c1ccc(CNC(=O)[C@@H]2C[C@@H](O)CN2C(=O)[C@@H](NC(=O)COCCOCCCOCCOc2ccc(N3C(=S)N(c4ccc(C#N)c(C(F)(F)F)c4)C(=O)C3(C)C)cc2)C(C)(C)C)cc1 [Example 240] | < 50 |  | 51 to 70 |
| Cc1ncsc1-c1ccc(CNC(=O)[C@@H]2C[C@@H](O)CN2C(=O)[C@@H](NC(=O)COCCCCOCCCCCOc2ccc(N3C(=S)N(c4ccc(C#N)c(C(F)(F)F)c4)C(=O)C3(C)C)cc2)C(C)(C)C)cc1 [Example 255] | 51 to 500 |  | > 71 |
| Cc1ncsc1-c1ccc(CNC(=O)[C@@H]2C[C@@H](O)CN2C(=O)[C@H](C(C)C)N2Cc3ccc(F)cc3C2=O)c(OCCOCCOCCOc2ccc(N3C(=S)N(c4ccc(C#N)c(C(F)(F)F)c4)C(=O)C3(C)C)cc2)c1 [Example 83, (2S,4R)-N-{[2-(2-{2-[2-(4-{3-[4-cyano-3-(trifluoromethyl)phenyl]-5,5-dimethyl-4-oxo-2-sulfanylideneimidazolidin-1-yl}phenoxy)ethoxy]ethoxy}ethoxy)-4-(4-methyl-1,3-thiazol-5-yl)phenyl]methyl}-1-[(2S)-2-(6-fluoro-1-oxo-2,3-dihydro-1H-isoindol-2-yl)-3-methylbutanoyl]-4-hydroxypyrrolidine-2-carboxamide] | 51 to 500 | 51 to 70 |  |
| Cc1ncsc1-c1ccc(CNC(=O)[C@@H]2C[C@@H](O)CN2C(=O)[C@H](C(C)C)N2Cc3cc(CCCCOCCCOc4ccc(N5C(=S)N(c6ccc(C#N)c(C(F)(F)F)c6)C(=O)C5(C)C)cc4)ccc3C2=O)cc1 [Example 273] | > 501 |  | 26 to 50 |
| Cc1ncsc1-c1ccc(CNC(=O)[C@@H]2C[C@@H](O)CN2C(=O)[C@@H](NC(=O)c2ccc(OCCCCCOc3ccc(N4C(=S)N(c5ccc(C#N)c(C(F)(F)F)c5)C(=O)C4(C)C)cc3)cc2)C(C)(C)C)cc1 [Example 258] | 51 to 500 |  | 26 to 50 |
| Cc1ncsc1-c1ccc(CNC(=O)[C@@H]2C[C@@H](O)CN2C(=O)[C@@H](NC(=O)c2ccc(OCCCCOc3ccc(N4C(=S)N(c5ccc(C#N)c(C(F)(F)F)c5)C(=O)C4(C)C)cc3)cc2)C(C)(C)C)cc1 [Example 257] | 51 to 500 |  | 26 to 50 |
| Cc1ncsc1-c1ccc(CNC(=O)[C@@H]2C[C@@H](O)CN2C(=O)[C@@H](NC(=O)c2ccc(OCCOCCCOc3ccc(N4C(=S)N(c5ccc(C#N)c(C(F)(F)F)c5)C(=O)C4(C)C)cc3)cc2)C(C)(C)C)cc1 [Example 274] | 51 to 500 |  | 26 to 50 |
| Cc1ncsc1-c1ccc(CNC(=O)[C@@H]2C[C@@H](O)CN2C(=O)[C@@H](NC(=O)CCCCCOCCCCOCCCCOc2ccc(N3C(=S)N(c4ccc(C#N)c(C(F)(F)F)c4)C(=O)C3(C)C)cc2)C(C)(C)C)cc1 [Example 227] | < 50 |  | 26 to 50 |
| Cc1ncsc1-c1ccc(CNC(=O)C2C[C@@H](O)CN2C(=O)[C@H](C(C)C)N2Cc3ccccc3C2=O)c(OCCOCCOCCOc2ccc(N3C(=O)N(c4ccc(C#N)c(C(F)(F)F)c4)C(=O)C3(C)C)cc2)c1 (some centres unmarked) [Example 235] | 51 to 500 |  | 51 to 70 |
| Cc1ncsc1-c1ccc(CNC(=O)[C@@H]2C[C@@H](O)CN2C(=O)[C@H](C(C)C)N2Cc3ccccc3C2=O)c(OCCOCCOCCCCCOCCCCCOCCOCCOc2ccc(N3C(=S)N(c4ccc(C#N)c(C(F)(F)F)c4)C(=O)C3(C)C)cc2)c1 [Example 220] |  |  | 51 to 70 |
| Cc1ncsc1-c1ccc(CNC(=O)[C@@H]2C[C@@H](O)CN2C(=O)[C@@H](NC(=O)COCCCOCCCCCOc2ccc(N3C(=S)N(c4ccc([N+](=O)[O-])c(C(F)(F)F)c4)C(=O)C3(C)C)cc2)C(C)(C)C)cc1 [Example 5, (2S,4R)-1-[(2S)-2-[2-(3-{[5-(4-{5,5-dimethyl-3-[4-nitro-3-(trifluoromethyl)phenyl]-4-oxo-2-sulfanylideneimidazolidin-1-yl}phenoxy)pentyl]oxy}propoxy)acetamido]-3,3-dimethylbutanoyl]-4-hydroxy-N-{[4-(4-methyl-1,3-thiazol-5-yl)phenyl]methyl}pyrrolidine-2-carboxamide] | 51 to 500 | > 71 |  |
| Cc1ncsc1-c1ccc(CNC(=O)[C@@H]2C[C@@H](O)CN2C(=O)[C@@H](NC(=O)CCOCCCCCOc2ccc(-c3ccc(N4C(=S)N(c5ccc(C#N)c(C(F)(F)F)c5)C(=O)C4(C)C)cc3)cc2)C(C)(C)C)cc1 [Example 72, (2S,4R)-1-[(2S)-2-[3-({5-[4-(4-{3-[4-cyano-3-(trifluoromethyl)phenyl]-5,5-dimethyl-4-oxo-2-sulfanylideneimidazolidin-1-yl}phenyl)phenoxy]pentyl}oxy)propanamido]-3,3-dimethylbutanoyl]-4-hydroxy-N-{[4-(4-methyl-1,3-thiazol-5-yl)phenyl]methyl}pyrrolidine-2-carboxamide] | 51 to 500 | > 71 |  |
| Cc1ncsc1-c1ccc(CNC(=O)[C@@H]2C[C@@H](O)CN2C(=O)[C@@H](NC(=O)CCOCCNC(=O)CCCc2ccc(N3C(=S)N(c4ccc(C#N)c(C(F)(F)F)c4)C(=O)C3(C)C)cc2)C(C)(C)C)cc1 [Example 232] | > 501 |  | 26 to 50 |
| CCC(=O)N[C@H](C(=O)N1C[C@H](O)C[C@H]1C(=O)NCc1ccc(-c2scnc2C)cc1OCCOCCOCCOc1ccc(N2C(=S)N(c3ccc(C#N)c(C(F)(F)F)c3)C(=O)C2(C)C)cc1)C(C)(C)C [Example 267] | 51 to 500 |  | 51 to 70 |
| CC(=O)N[C@H](C(=O)N1C[C@H](O)C[C@H]1C(=O)NCc1ccc(-c2scnc2C)cc1OCCOCCOCCOc1ccc(N2C(=S)N(c3ccc(C#N)c(C(F)(F)F)c3)C(=O)C2(C)C)cc1)C(C)(C)C [Example 266] | 51 to 500 |  | 51 to 70 |
| Cc1ncsc1-c1ccc(CNC(=O)[C@@H]2C[C@@H](O)CN2C(=O)[C@@H](NC(=O)c2ccc(OCCCCOc3ccc(-c4ccc(N5C(=S)N(c6ccc(C#N)c(C(F)(F)F)c6)C(=O)C5(C)C)cc4)cc3)cc2)C(C)(C)C)cc1 [Example 285] | > 501 |  | < 25 |
